According to PMC7243119, “Improved Surface Display of Human Hyal1 and Identification of Testosterone Propionate and Chicoric Acid as New Inhibitors” (Pharmaceuticals, 2020):

Columns and labels:
Hyal1 [1] = molecular target: T1, Hyal1 (Homo sapiens, UniProt Q12794); assay: Stains-all HA degradation assay with surface-displayed Hyal1 on E. coli cells, pH […]; format: cell-based
T1 sequence (Q12794 22-435): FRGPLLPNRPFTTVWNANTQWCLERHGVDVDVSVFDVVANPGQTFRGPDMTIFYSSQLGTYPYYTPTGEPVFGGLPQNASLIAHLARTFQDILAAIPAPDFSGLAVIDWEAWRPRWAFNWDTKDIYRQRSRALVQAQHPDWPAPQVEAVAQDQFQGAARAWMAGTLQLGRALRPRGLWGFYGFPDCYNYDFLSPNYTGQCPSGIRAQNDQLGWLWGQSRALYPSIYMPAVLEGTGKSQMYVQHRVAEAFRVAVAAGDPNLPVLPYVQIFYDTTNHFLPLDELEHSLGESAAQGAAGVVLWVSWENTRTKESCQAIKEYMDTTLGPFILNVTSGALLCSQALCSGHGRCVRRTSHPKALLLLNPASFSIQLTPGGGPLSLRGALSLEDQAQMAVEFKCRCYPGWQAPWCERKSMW

Hyal1 [2] = molecular target: T1, Hyal1; assay: Stains-all HA degradation assay with surface-displayed Hyal1 on E. coli cells, pH […] (incomplete curve; assay impaired beyond […]); format: cell-based

Row | SMILES | IC50 (Hyal1 [1]) | IC50 (Hyal1 [2])
1 | CCC(=O)O[C@H]1CC[C@H]2[C@@H]3CCC4=CC(=O)CC[C@]4(C)[C@H]3CC[C@]12C [testosterone propionate] | 124 ± 1.1 µM | –
2 | O=C(/C=C/c1ccc(O)c(O)c1)O[C@@H](C(=O)O)[C@@H](OC(=O)/C=C/c1ccc(O)c(O)c1)C(=O)O [chicoric acid] | – | 171 µM
